This note sets out measurements from US20250129101A1, “Compound, Pharmaceutical Composition Comprising the Same and Method for Treating Cancer Using the Same” (NATIONAL TSING HUA UNIVERSITY, priority 2023, published 2025).

SMILES strings stand for the structures.

For assay [1], the system named is MDA-MB-231 cells. Kind of assay: Cell validation: cytotoxicity in MDA-MB-231 cells (CellTiter-Glo). In kind it is cell-based. Particulars: cytotoxicity in MDA-MB-231 cells; for IC50: Homo sapiens. The method, boiled down:
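MDA-MB-231 cells were seeded at 2000 cells/well and exposed to compounds for the specified number of days. Medium was then replaced with a 1:1 CellTiter-Glo reagent/serum-supplemented DMEM mix for 10 min, and viability was read as luminescence, proportional to living cell number.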

Assay [2] addresses T1, KIF2C (Homo sapiens, UniProt Q99661).
T1 construct: KIF2C (216-598 a.a.); 6xHis (C); made in house; host or cells: E. coli BL21 (DE3), pET-28a
Kind of assay: In vitro validation: KIF2C kinesin activity, malachite green-based phosphate colorimetric assay. The assay is classed as biochemical. Particulars: concentration that inhibits 50% of KIF2C activity. The method, boiled down:
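KIF2C sN+M construct (aa 216-598, C-terminal 6×His, E. coli-expressed) ATPase activity with microtubules from porcine brain tubulin or HEK293 (293Fs) cells in BRB80 (80 mM PIPES pH 6.8, 1 mM GTP, 10% DMSO), 37° C for 2 hr. Released phosphate detected by malachite green reagent, 10 min, A650.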

T1 sequence (Q99661 216-598): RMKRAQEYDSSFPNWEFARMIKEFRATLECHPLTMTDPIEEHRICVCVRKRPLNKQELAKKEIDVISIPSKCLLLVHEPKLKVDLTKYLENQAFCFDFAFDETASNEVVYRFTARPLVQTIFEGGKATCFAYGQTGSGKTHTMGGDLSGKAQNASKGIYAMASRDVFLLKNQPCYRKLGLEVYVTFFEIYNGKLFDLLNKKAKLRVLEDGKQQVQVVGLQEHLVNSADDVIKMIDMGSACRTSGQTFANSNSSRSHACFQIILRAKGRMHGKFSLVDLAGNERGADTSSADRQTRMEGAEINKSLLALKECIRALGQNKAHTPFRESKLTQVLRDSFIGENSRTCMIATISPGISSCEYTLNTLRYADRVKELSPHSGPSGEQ

`CC1=C(C(=O)O)C(c2ccc(N(C)C)cc2)n2c(s/c(=C\c3ccc(OCC(=O)N4CCN(C)CC4)cc3)c2=O)=N1` (stereo not shown) [Compound 142] displayed a half-inhibitory concentration (IC50) in assay [1] greater than 50 µM. In assay [2], this compound returned an EC50 of 50 to 100 µM.
In the case of `CC1=C(C(=O)OC(C)C)C(c2ccc(Cl)cc2)n2c(s/c(=C\c3ccc(OCC(=O)N4CCC(N5CCN(C)CC5)CC4)cc3)c2=O)=N1` (stereo not shown) [24S0 (19), isopropyl (Z)-5-(4-chlorophenyl)-7-methyl-2-(4-(2-(4-(4-methylpiperazin-1-yl)piperidin-1-yl)-2-oxoethoxy)benzylidene)-3-oxo-2,3-dihydro-5H-thiazolo[3,2-a]pyrimidine-6-carboxylate], in assay [1], the “Cell validation (IC50)” value was “+ + + +”. The EC50 in assay [2] was less than 50 µM.
The like results for `CC1=C(C(=O)OC(C)C)C(c2ccc(Cl)cc2)n2c(s/c(=C\c3ccc(OCC(=O)N4CCC(N(C)C)CC4)cc3)c2=O)=N1.O=C(O)/C=C\C(=O)O` (stereo not shown) [23S9 (134), isopropyl (Z)-5-(4-chlorophenyl)-2-(4-(2-(4-(dimethylamino)piperidin-1-yl)-2-oxoethoxy)benzylidene)-7-methyl-3-oxo-2,3-dihydro-5H-thiazolo[3,2-a]pyrimidine-6-carboxylate maleate] were, in that order, “+ + +” and less than 50 µM.
Consider `CCN1CCN(C(=O)COc2ccc(/C=c3\sc4n(c3=O)C(c3cccc(Cl)c3)C(C(=O)OC(C)C)=C(C)N=4)cc2)CC1` (stereo not shown) [16S0 (67), isopropyl (Z)-5-(3-chlorophenyl)-2-(4-(2-(4-ethylpiperazin-1-yl)-2-oxoethoxy)benzylidene)-7-methyl-3-oxo-2,3-dihydro-5H-thiazolo[3,2-a]pyrimidine-6-carboxylate], for which the “Cell validation (IC50)” value in assay [1] is “+ +”. In assay [2], the EC50 lay within 50 to 100 µM.
On to `CC1=C(C(=O)OC(C)C)C(c2ccc(Cl)cc2)n2c(s/c(=C\c3ccc4c(c3)OCO4)c2=O)=N1` (stereo not shown) [34S0 (24), isopropyl (Z)-2-(benzo[d][1,3]dioxol-5-ylmethylene)-5-(4-chlorophenyl)-7-methyl-3-oxo-2,3-dihydro-5H-thiazolo[3,2-a]pyrimidine-6-carboxylate], for which the IC50 in assay [1] was greater than 50 µM. Also, in assay [2], the EC50 was greater than 100 µM.
Take `CCOC(=O)C1=C(C)N=c2s/c(=C\c3ccc(OCC(=O)N4CCC(N5CCN(C)CC5)CC4)cc3)c(=O)n2C1c1ccc(Cl)cc1` (stereo not shown) [50S0 (99)]: the “Cell validation (IC50)” value in assay [1] is on record as “+ + + +”. Also, the EC50 in assay [2] was less than 50 µM.
On to `CNc1ccc(C2C(C(=O)OC(C)C)=C(C)N=c3s/c(=C\c4ccc(OCC(=O)N5CCN(C)CC5)cc4)c(=O)n32)cc1` (stereo not shown) [Compound 140], for which the IC50 in assay [1] lay in the range of 20 to 50 µM. For the same compound, the EC50 in assay [2] is 50 to 100 µM.
Turning to `COC(=O)C1=C(C)N=c2s/c(=C\c3ccc(OCC(=O)O)cc3)c(=O)n2C1c1ccc(Cl)cc1` (stereo not shown) [14S0 (78), (Z)-2-(4-((5-(4-chlorophenyl)-6-(methoxycarbonyl)-7-methyl-3-oxo-5H-thiazolo[3,2-a]pyrimidin-2(3H)-ylidene)methyl)phenoxy)acetic acid], the IC50 in assay [1] is greater than 50 µM. The EC50 in assay [2] was in the range of 50 to 100 µM.
Take `CNC(=O)COc1ccc(/C=c2\sc3n(c2=O)C(c2ccc(F)cc2)C(C(=O)OC(C)C)=C(C)N=3)cc1` (stereo not shown) [10S0 (35), isopropyl (Z)-5-(4-fluorophenyl)-7-methyl-2-(4-(2-(methylamino)-2-oxoethoxy)benzylidene)-3-oxo-2,3-dihydro-5H-thiazolo[3,2-a]pyrimidine-6-carboxylate]: the half-inhibitory concentration (IC50) in assay [1] is greater than 50 µM. The EC50 in assay [2] was greater than 100 µM.
The like results for `CCOC(=O)C1=C(C)N=c2s/c(=C\c3ccc(OCC(=O)O)cc3)c(=O)n2[C@@H]1c1ccc(Cl)cc1` [54S0 (130)] were, in that order, greater than 50 µM and 50 to 100 µM.
For the compound `CC1=C(C(=O)OC(C)C)C(c2ccc(Cl)cc2)n2c(s/c(=C\c3ccc(OCC(=O)N4CCC(N(C)C)CC4)cc3)c2=O)=N1` (stereo not shown) [23S0 (18), propan-2-yl (2Z)-5-(4-chlorophenyl)-2-(4-(2-(4-(dimethylamino)piperidin-1-yl)-2-oxoethoxy)benzylidene)-7-methyl-3-oxo-2,3-dihydro-5H-[1,3]thiazolo[3,2-a]pyrimidine-6-carboxylate], in assay [1], the “Cell validation (IC50)” value is “+ + +”. In assay [2], this compound displayed an EC50 of less than 50 µM.
Turning to `CCOC(=O)C1=C(C)N=c2s/c(=C\c3ccc(OCC(=O)N4CCC(N5CCN(C)CC5)CC4)cc3)c(=O)n2C1c1ccc(N(C)C)cc1` (stereo not shown) [Compound 150], in assay [1], the IC50 was 20 to 50 µM. For the same compound, in assay [2], the EC50 lay within 50 to 100 µM.
In turn, `CC1=C(C(=O)OC(C)C)C(c2ccc(C(F)(F)F)cc2)n2c(s/c(=C\c3ccc(OCC(=O)N4CCN(C)CC4)cc3)c2=O)=N1` (stereo not shown) [Compound 141] came in with an IC50 in assay [1] of 20 to 50 µM. This compound registered an EC50 in assay [2] of less than 50 µM.
For `CCC1=C(C(=O)OC(C)C)C(c2ccc(Cl)cc2)n2c(s/c(=C\c3ccc(OCC(=O)N4CCN(C)CC4)cc3)c2=O)=N1` (stereo not shown) [28S0 (105), isopropyl (Z)-5-(4-chlorophenyl)-7-ethyl-2-(4-(2-(4-methylpiperazin-1-yl)-2-oxoethoxy)benzylidene)-3-oxo-2,3-dihydro-5H-thiazolo[3,2-a]pyrimidine-6-carboxylate], in that order: 20 to 50 µM and greater than 100 µM.
The like results for `CC1=C(C(=O)OC(C)C)C(c2ccc(Cl)cc2)n2c(s/c(=C\c3ccc(OCc4cnn[nH]4)cc3)c2=O)=N1` (stereo not shown) [37S0 (120), isopropyl (Z)-2-(4-((1H-1,2,3-triazol-5-yl)methoxy)benzylidene)-5-(4-chlorophenyl)-7-methyl-3-oxo-2,3-dihydro-5H-thiazolo[3,2-a]pyrimidine-6-carboxylate] were, in that order, greater than 50 µM and greater than 100 µM.
The like results for `CCOC(=O)COc1ccc(/C=c2\sc3n(c2=O)C(c2ccc(Cl)cc2)C(C(=O)OC(C)C)=C(C)N=3)cc1` (stereo not shown) [4S0 (26), 1-methylethyl 5-(4-chlorophenyl)-2-[[4-(2-ethoxy-2-oxoethoxy)phenyl]methylene]-2,3-dihydro-7-methyl-3-oxo-5H-thiazolo[3,2-a]pyrimidine-6-carboxylate] were, in that order, greater than 50 µM and greater than 100 µM.
On to `CC1=C(C(=O)OC(C)C)C(c2ccc(Cl)cc2)n2c(s/c(=C\c3ccc(OCc4nn[nH]n4)cc3)c2=O)=N1` (stereo not shown) [33S0 (115), isopropyl (Z)-2-(4-((2H-tetrazol-5-yl)methoxy)benzylidene)-5-(4-chlorophenyl)-7-methyl-3-oxo-2,3-dihydro-5H-thiazolo[3,2-a]pyrimidine-6-carboxylate], for which the IC50 in assay [1] is greater than 50 µM. The compound also came in with an EC50 in assay [2] of less than 20 µM.
For `COc1ccc(C2C(C(=O)OC(C)C)=C(C)N=c3s/c(=C\c4ccc(OCC(=O)O)cc4)c(=O)n32)cc1` (stereo not shown) [41S0 (60), (Z)-2-(4-((6-(isopropoxycarbonyl)-5-(4-methoxyphenyl)-7-methyl-3-oxo-5H-thiazolo[3,2-a]pyrimidin-2(3H)-ylidene)methyl)phenoxy)acetic acid], in that order: greater than 50 µM and less than 50 µM.
The like results for `CC1=C(C(=O)OC(C)(C)C)C(c2ccc(Cl)cc2)n2c(s/c(=C\c3ccc(OCC(=O)O)cc3)c2=O)=N1` (stereo not shown) [53S0 (80), (Z)-2-(4-((6-(tert-butoxycarbonyl)-5-(4-chlorophenyl)-7-methyl-3-oxo-5H-thiazolo[3,2-a]pyrimidin-2(3H)-ylidene)methyl)phenoxy)acetic acid] were, in that order, greater than 50 µM and 50 to 100 µM.
For `CC1=C(C(=O)OC(C)C)C(c2ccc(Cl)cc2)n2c(s/c(=C\c3ccc(OCCCO)cc3)c2=O)=N1` (stereo not shown) [39S0 (118), isopropyl (Z)-5-(4-chlorophenyl)-2-(4-(3-hydroxypropoxy)benzylidene)-7-methyl-3-oxo-2,3-dihydro-5H-thiazolo[3,2-a]pyrimidine-6-carboxylate], in that order: greater than 50 µM and greater than 100 µM.
For `CC1=C(C(=O)O)C(c2ccc(N(C)C)cc2)n2c(s/c(=C\c3ccc(OCC(=O)N4CCC(N5CCN(C)CC5)CC4)cc3)c2=O)=N1` (stereo not shown) [Compound 149], the concentration for half-maximal inhibition (IC50) in assay [1] was greater than 50 µM. Moreover, in assay [2], the EC50 is less than 50 µM.
On to `CCN1CCN(C(=O)COc2ccc(/C=c3\sc4n(c3=O)C(c3ccc(N(C)C)cc3)C(C(=O)OC(C)C)=C(C)N=4)cc2)CC1` (stereo not shown) [Compound 147], for which the “Cell validation (IC50)” value in assay [1] is given as “+ +”. For the same compound, the EC50 in assay [2] was less than 50 µM.
Turning to `COc1ccc(C2C(C(=O)OC(C)C)=C(C)N=c3s/c(=C\c4ccc(OCC(=O)N5CCN(C)CC5)cc4)c(=O)n32)cc1` (stereo not shown) [42S0 (61), isopropyl (Z)-5-(4-methoxyphenyl)-7-methyl-2-(4-(2-(4-methylpiperazin-1-yl)-2-oxoethoxy)benzylidene)-3-oxo-2,3-dihydro-5H-thiazolo[3,2-a]pyrimidine-6-carboxylate], the IC50 in assay [1] is 20 to 50 µM. The compound further yielded an EC50 in assay [2] greater than 100 µM.
For the compound `CC1=C(C(=O)OC(C)C)C(c2ccc(Cl)cc2)n2c(s/c(=C\c3ccc(OCC(=O)N4CCC(N(C)C)CC4)cc3)c2=O)=N1` (stereo not shown) [Compound 139], in assay [1], the IC50 is 20 to 50 µM. The compound further gave an EC50 in assay [2] of 50 to 100 µM.
For `CC1=C(C(=O)OC(C)C)C(c2ccc(Br)cc2)n2c(s/c(=C\c3ccc(OCC(=O)O)cc3)c2=O)=N1` (stereo not shown) [40S0 (40), (4-(((2Z)-5-(4-bromophenyl)-7-methyl-3-oxo-6-((propan-2-yloxy)carbonyl)-5H-[1,3]thiazolo[3,2-a]pyrimidin-2(3H)-ylidene)methyl)phenoxy)acetic acid], in that order: greater than 50 µM and less than 20 µM.
On to `CCOC(=O)C1=C(C)N=c2s/c(=C\c3ccc(OCC(=O)N4CCN(CC)CC4)cc3)c(=O)n2C1c1ccc(N(C)C)cc1` (stereo not shown) [Compound 146], for which the IC50 in assay [1] lay within 20 to 50 µM. For the same compound, the EC50 in assay [2] was less than 50 µM.
